# According to US20170058314A1, “NOVEL METHODOLOGY FOR IDENTIFYING ANTI-PERSISTER ACTIVITY AND ANTIMICROBIAL SUSCEPTIBILITY FOR BORRELIA BURGDORFERI AND OTHER BACTERIA” (priority 2014, published 2017):
# Counter-ions that a name gives are not always drawn.
# What was measured:
# [1] = test system: stationary phase B. burgdorferi persisters (strain B31); experiment: NCI compound library rescreen, epifluorescence microscope counting; conditions: for Residual viable cells (%) 20 μM (epifluorescence microscope counting) / Residual viable cells (%) 50 μM (epifluorescence microscope counting): seven day old stationary phase; for Residual viable cells (%) 20 μM (epifluorescence microscope counting) / Residual viable cells (epifluorescence microscope counting) / Residual viable cells (%) 50 μM (epifluorescence microscope counting): 7 days; for Residual viable cells (epifluorescence microscope counting) / Residual viable cells (%) 50 μM (epifluorescence microscope counting): 50 μM; for Residual viable cells (epifluorescence microscope counting): seven day old stationary phase culture; for viability at 50 µM / viability at 20 µM: Borreliella burgdorferi, 168 h; for viability at 20 µM: read-out: Residual viable cells (%) 20 μM (epifluorescence microscope counting)
# [2] = test system: stationary phase B. burgdorferi persisters (strain B31); experiment: NCI compound library screen, SYBR Green I/PI assay (plate reader); conditions: for Residual viable cells (%) 20 μM (SYBR Green I/PI assay): seven day old stationary phase; for Residual viable cells (%) 20 μM (SYBR Green I/PI assay) / Residual viable cells (SYBR Green I/PI assay): 7 days; for Residual viable cells (SYBR Green I/PI assay): 50 μM, seven day old stationary phase culture; for viability at 50 µM / viability at 20 µM: Borreliella burgdorferi, 168 h; for viability at 20 µM: read-out: Residual viable cells (%) 20 μM (SYBR Green I/PI assay)
# [3] = read-out: Residual viable cells (epifluorescence microscope counting)
# [4] = read-out: Residual viable cells (SYBR Green I/PI assay)
# [5] = read-out: Residual viable cells (%) 50 μM (epifluorescence microscope counting)
compound,measurement,setting,value
"Benzoic acid, 2-hydroxy-, (2,6-pyridinediyldiethylidyne)dihydrazide, nickel complex [NSC617570]",Residual viable cells (%) 20 μM (epifluorescence microscope counting),[1],50%
same,Residual viable cells (epifluorescence microscope counting),[1],38%
same,Residual viable cells (%) 50 μM (epifluorescence microscope counting),[1],38%
same,Residual viable cells (%) 20 μM (SYBR Green I/PI assay),[2],66%
same,Residual viable cells (SYBR Green I/PI assay),[2],44%
"Cc1c2cc[n+](CCN3CCCCC3)cc2c(C)c2c1[nH]c1ccc(O)cc12 [NSC311153, 9-Hydroxy-2-(2-piperidinylethyl)ellipticinium acetate]",viability at 50 µM,[1]; [3],26%
same,viability at 50 µM,[2]; [4],45%
"O=C1c2ccccc2C(=O)c2c(O)c(NCCNCCO)cc(O)c21 [NSC316157, 9,10-Anthracenedione, 1,4-dihydroxy-2-[[2-[(2-hydroxyethyl)amino]ethyl]amino]-]",viability at 50 µM,[1]; [3],23%
same,viability at 50 µM,[2]; [4],0%
Nogalamycin [NSC70845],Residual viable cells (%) 20 μM (epifluorescence microscope counting),[1],15%
same,Residual viable cells (epifluorescence microscope counting),[1],15%
same,Residual viable cells (%) 50 μM (epifluorescence microscope counting),[1],15%
same,Residual viable cells (%) 20 μM (SYBR Green I/PI assay),[2],3%
same,Residual viable cells (SYBR Green I/PI assay),[2],0%
"O=c1c(O)c(-c2ccc(O)c(O)c2)oc2cc(O)ccc12 [NSC407010, 2-(3,4-dihydroxyphenyl)-3,7-dihydroxy-4H-1-benzopyran-4-one]",viability at 50 µM,[1]; [3],38%
same,viability at 50 µM,"[2]; read-out: Residual viable cells (SYBR Green I/PI assay), 50 μM, seven day old stationary phase culture, 7 days",39%
"COc1cccc2c1C(=O)c1c(O)c3c(c(O)c1C2=O)C[C@@](O)(C(C)=O)C[C@@H]3OC1CC(N(C)C)C(O)C(C)O1 (some centres unmarked) [NSC258812, Dimethyldaunomycin hydrochloride]",viability at 20 µM,[1],10%
same,viability at 50 µM,[1]; [5],10%
same,viability at 50 µM,[1]; [3],10%
same,viability at 20 µM,[2],0%
same,viability at 50 µM,[2]; [4],0%
"C=CCNc1ncnc2sc(SC)nc12 [NSC343783, N-Allyl-2-(methylthio)[1,3]thiazolo[5,4-d]pyrimidin-7-amine]",viability at 50 µM,[1]; [3],20%
same,viability at 50 µM,[2]; [4],67%
"COCCOC1=C(Cl)C(=O)c2c(O)ccc(O)c2C1=O [NSC659997, Naphthalene-1,4-dione, 2-chloro-5,8-dihydroxy-3-(2-methoxyethoxy)-]",viability at 20 µM,[1],50%
same,viability at 50 µM,[1]; [5],28%
same,viability at 50 µM,[1]; [3],28%
same,viability at 20 µM,[2],40%
same,viability at 50 µM,[2]; [4],1%
"O/N=C(/c1ccccc1)c1ccc2c3c(cccc13)CC2 [NSC137399, 1-(1,2-Dihydro-5-acenaphthylenyl)-N-hydroxy-1-phenylmethanimine]",viability at 50 µM,[1]; [3],41%
same,viability at 50 µM,[2]; [4],51%
"CC[C@@]1(O)C[C@H](O[C@H]2C[C@H](N(C)C)[C@H](O)[C@H](C)O2)c2c(O)c3c(c(O)c2[C@H]1O[C@H]1C[C@H](N(C)C)[C@H](O)[C@H](C)O1)C(=O)c1cccc(O)c1C3=O [NSC136044, Rhodomycin A]",Residual viable cells (%) 20 μM (epifluorescence microscope counting),[1],21%
same,Residual viable cells (epifluorescence microscope counting),[1],22%
same,Residual viable cells (%) 50 μM (epifluorescence microscope counting),[1],21%
same,Residual viable cells (%) 20 μM (SYBR Green I/PI assay),[2],5%
same,Residual viable cells (SYBR Green I/PI assay),[2],0%
"Cc1cc(O)c2c(c1)C(=O)c1cc(O)cc(O)c1C2=O [NSC408120, Emodin]",viability at 50 µM,[1]; [3],31%
same,viability at 50 µM,[2]; [4],18%
"O=C1c2cccc(NCCCNCCO)c2C(=O)c2cccc(NCCCNCCO)c21 [NSC363998, Anthracene-9,10-dione, 1,5-bis[3-[[(2-hydroxyethyl)amino]propyl]amino]-9,10-dihydro-, dihydrochloride]",viability at 20 µM,[1],14%
same,viability at 50 µM,[1]; [5],13%
same,viability at 50 µM,[1]; [3],13%
same,viability at 20 µM,[2],22%
same,viability at 50 µM,[2]; [4],0%
"Cc1ccc(NCCN(C)C)c2c(=O)c3cc(O)ccc3sc12 [NSC317003, 9H-Thioxanthen-9-one, 1-[[2-(dimethylamino)ethyl]amino]-7-hydroxy-4-methyl-, monohydriodide]",viability at 50 µM,[1]; [3],30%
same,viability at 50 µM,[2]; [4],29%
